Results taken from patent publication US20110092456A1, “Methods of increasing cAMP levels and uses thereof” (priority 2009, published 2011).
Entries after “also recorded” stand apart in the source; their conditions may differ. Like-named read-outs stand apart in the source and are kept apart here.

What was measured:
Akt [1] = assay: Western blot of myocardial Akt; type: in vivo, rat; settings: rats, 3-day oral pretreatment, immunoblot, result in words
Experimental: (§1) Adenosine 5' triphosphate [γ32P] […] The supernatant was collected and the total protein concentration was determined using Lowry Protein Assay. The protein samples were subjected to SDS-PAGE with 4-20% gradient polyacrylamide gel and transferred to pure nitrocellulose membrane (0.45 μm) (Bio-Rad). After blocking with 5% skim milk in Tris-buffered saline, the membrane was incubated overnight at 4° C. with primary antibodies against eNOS, Akt, […]-eNOS, […]-eNOS, […]-Akt, and PTEN, and secondarily with HRP-conjugated anti-mouse or anti-rabbit antibodies. The immunoblots were developed using ECL western Blotting Detection Reagent (Amersham). The protein signals were pictured by an image-scanner and analyzed using Image J software (National Institutes of health, USA). The strength of each signal was normalized to the corresponding β-actin stain signal. Data are expressed as a ratio between the protein and the corresponding β-actin signal density.

[2] = tested on: rat model of myocardial ischemia-reperfusion injury; assay: Rat myocardial ischemia-reperfusion infarct size protocol; type: in vivo; settings: rats; for infarct size (as a percentage of the AR): FIG. 1, 3-day oral pretreatment; for infarct size: 3-day oral pretreatment (atorvastatin 2 mg/kg/d, cilostazol 20 mg/kg/d)
Experimental: Adenosine 5′ triphosphate [γ32P]
Hearts were excised and the left ventricle was sliced transversely into 6 sections. Slices were weighed and incubated for 15 minutes at 37° C. in 1% buffered (pH=7.4) 2,3,5-triphenyl-tetrazolium-chloride (TTC), fixed in a 10% formaldehyde and photographed in order to identify the AR (uncolored by the blue dye), the infarct size (unstained by TTC), and the non-ischemic zones (colored by blue dye). The area of AR and infarct size in each slice were determined by planimetry, converted into percentages of the whole for each slice, and multiplied by the weight of the slice and the results summed to obtain the weight of the myocardial AR and infarct size.

eNOS [3] = assay: Western blot of myocardial eNOS; type: in vivo, rat; settings: rats, 3-day oral pretreatment, immunoblot, result in words
Experimental: as §1

myocardial adenosine = assay: Myocardial adenosine levels (HPLC); type: in vivo, rat; settings: rats; 3-day oral pretreatment; result in words
Experimental: Adenosine 5′ triphosphate [γ32P] […] Adenosine was analyzed by high performance liquid chromatography (HPLC) according to the procedure of Wojcik and Neff {Wojcik, 1982 #325}. […] The protein concentration was determined by Lowry assay. Ten volumes of 0.25 M Ba(OH)2 was added and the samples were centrifuged at 30,000×g for 10 minutes. The supernatants were then transferred to a conical tube and 5 μl of chloroacetaldehyde added to 20 μl of supernatant. The tubes were capped, mixed and submerged in a boiling water bath for 10 min. The samples were analyzed by HPLC using a Waters C18 reversed phase 150 mm×4.6 mm column. […] The excitation monochromator was set to a wavelength of 270 nm and the cutoff wavelength of the emission filter was 389 nm.

eNOS [4] = settings: atorvastatin 3-day pretreatment, 1 mg/kg/d; cited from earlier work
[5] = rat; 16 hours after the third dose, 10 mg/kg/d; cited from earlier work
PTEN = assay: Western blot of myocardial PTEN; type: in vivo, rat; settings: rats, 3-day oral pretreatment, immunoblot, result in words
Experimental: as §1

myocardial infarct size [6] = settings: 3-day pretreatment, cited from earlier work
calcium dependent NOS = settings: atorvastatin 3-day pretreatment, 1 mg/kg/d; cited from earlier work
[7] = tested on: middle cerebral artery occlusion; settings: rat, cited from earlier work
[8] = cited from earlier work
[9] = tested on: permanent middle cerebral artery occlusion; settings: mouse; 30 mg/kg intraperitoneally three times (12 h before, 1 h before, just after ischemia); cited from earlier work
myocardial infarct size [10] = settings: rabbit; intravenous 1 mg/kg/min for 5 min before myocardial ischemia; cited from earlier work
Akt [11] = settings: rat; oral 30 mg/kg after 2 hours of middle cerebral artery occlusion; cited from earlier work
[12] = tested on: cAMP-dependent protein kinase (PKA); assay: Myocardial protein kinase A (PKA) activity, rat; type: in vivo; settings: rats; 3-day oral pretreatment; myocardial samples; result in words
[13] = 41 patients; cilostazol 200 mg/d versus aspirin 250 mg/d; cited from earlier work
[14] = 30 min ischemia, 4 h reperfusion, mean±SEM

CC(C)c1c(C(=O)Nc2ccccc2)c(-c2ccccc2)c(-c2ccc(F)cc2)n1CC[C@@H](O)C[C@@H](O)CC(=O)O [atorvastatin]
myocardial levels of Ser-473 P-Akt (Akt [1]): small, statistically significant effect
myocardial total Akt levels (Akt [1]): did not affect
infarct size (as a percentage of the AR) ([2]; result in words): did not affect infarct size
infarct size [2, 14]: 128 ± 8 mg
infarct size ([2]; result in words): did not affect infarct size
myocardial levels of Ser-1177 P-eNOS (eNOS [3]): but not on Ser-1177 P-eNOS and Ser-633 P-eNOS levels; also recorded: did not increase
myocardial total eNOS levels (eNOS [3]): did not affect
myocardial adenosine levels (myocardial adenosine): small increase in myocardial adenosine levels
myocardial levels of P-eNOS (eNOS [4]): did not affect
blood levels of atorvastatin [5]: comparable to those seen in humans treated with atorvastatin 80 mg/d
myocardial PTEN levels (PTEN): no effect
infarct size (myocardial infarct size [6]; 1 mg/kg/d): did not limit infarct size
infarct size (myocardial infarct size [6]; oral, 2 mg/kg/d): does not affect infarct size
infarct size (myocardial infarct size [6]; oral, 10 and 75 mg/kg/d): reduces infarct size
calcium dependent NOS activity (calcium dependent NOS): did not affect

O=C1CCc2cc(OCCCCc3nnnn3C3CCCCC3)ccc2N1 [cilostazol]
brain infarct size ([7]; 2 h occlusion, 24 h reperfusion, oral cilostazol 30 mg/kg, aspirin 300 mg/kg, clopidogrel 30 mg/kg): reduced brain infarct size
brain infarct size ([7]; oral 30 mg/kg at 5 min and 4 h after completion of 2 hours of middle cerebral artery occlusion): reduces brain infarct size
myocardial levels of Ser-473 P-Akt (Akt [1]): augmented myocardial levels
myocardial total Akt levels (Akt [1]): did not affect
myocardial levels of Ser-473 P-Akt (Akt [1]; listed as CIL): significantly increased
6-month restenosis rate ([8]; 50 patients, primary stenting for ST elevation acute myocardial infarction, cilostazol 100 mg BID versus aspirin alone): 0%
in-stent stenosis ([8]; 70 patients, Palmaz-Schatz stenting, cilostazol 200 mg/d, aspirin 81 mg/d): 8.6%
6-month restenosis after successful coronary stenting ([8]; CREST, cilostazol 100 mg bid, all patients on clopidogrel 30 days and aspirin 6 months): 22.0%
9-month target lesion revascularization rate per patient ([8]; RACTS trial, cilostazol 100 mg bid 6 months, ticlopidine 250 mg bid 1 month): 22.9%
infarct size (as a percentage of the AR) ([2]; result in words): significantly smaller than in the control group
infarct size [2, 14]: 56 ± 4 mg
infarct size ([2]; result in words): reduced infarct size; also recorded: significant reduction in infarct size
myocardial levels of Ser-633 P-eNOS (eNOS [3]): augmented myocardial levels
myocardial levels of Ser-1177 P-eNOS (eNOS [3]): augmented myocardial levels
myocardial total eNOS levels (eNOS [3]): did not affect
myocardial levels of Ser-633 P-eNOS (eNOS [3]; listed as CIL): significantly increased
myocardial levels of Ser-1177 P-eNOS (eNOS [3]; listed as CIL): significantly increased
brain infarct size measured at 24 h [9]: reduced brain infarct size
effect of preconditioning by 2 min of ischemia (myocardial infarct size [10]): potentiates the effect of preconditioning
myocardial infarct size (myocardial infarct size [10]): does not affect myocardial infarct size
Akt phosphorylation (Akt [11]): augmented Akt phosphorylation
myocardial adenosine levels (myocardial adenosine): small increase in myocardial adenosine levels
cAMP-dependent protein kinase (PKA) activity [12]: significantly increased
6-month angiographic outcomes [13]: better 6-month angiographic outcomes than aspirin
minimal lumen diameter at follow-up [13]: larger
percent diameter stenosis [13]: smaller
plaque area (intravascular ultrasound) [13]: smaller
myocardial PTEN levels (PTEN): significantly reduce PTEN levels
myocardial PTEN levels (PTEN; listed as CIL): significantly decreased
